Experiments:
[1] = tested on: M. tuberculosis (H37Rv strain); assay: Mtb growth in minimal media with a defined sole carbon source; conditions: 100 μg/mL
[2] = tested on: Helicobacter pylori; conditions: recent work; cited from earlier work
[3] = tested on: M. tuberculosis (H37Rv strain); assay: Direct effect of cholestenone on Mtb growth in broth culture (absorbance, CFU); conditions: bacilli growing in broth culture
[4] = tested on: host and Mtb methylmalonyl-CoA mutase; conditions: host and Mtb enzyme; cited from earlier work
[5] = tested on: Mtb isocitrate lyase(s); conditions: Mtb enzyme, methylcitrate cycle; cited from earlier work

In the case of `C[C@H](CCCC(C)(C)O)[C@H]1CC[C@H]2[C@@H]3CC=C4C[C@@H](O)CC[C@]4(C)[C@H]3CC[C@]12C` [25-HC, 25-hydroxycholesterol], the “growth of Mtb with the substance as sole carbon source” value [1] was “grew”.

For `CC(C)CCC[C@@H](C)[C@H]1CC[C@H]2[C@@H]3CCC4=CC(=O)CC[C@]4(C)[C@H]3CC[C@]12C` [cholestenone, 4-cholesten-3-one], the “antimicrobial activity against Helicobacter pylori” value [2] is listed as “has antimicrobial activity” and the “direct antimicrobial activity (toxicity) against Mtb” value [3] is listed as “not directly toxic to Mtb”.

For `CC(C)CCC[C@@H](C)[C@H]1CC[C@H]2[C@@H]3CC=C4C[C@@H](O)CC[C@]4(C)[C@H]3CC[C@]12C` [cholesterol], the “growth of Mtb with the substance as sole carbon source” value [1] was “grew”.

In the case of `C=C(CC(=O)O)C(=O)O` [itaconate, itaconic acid], the “inhibition of methylmalonyl-CoA mutase” value [4] is given as “inhibits” and the “inhibition of isocitrate lyase(s)” value [5] is given as “inhibits”.

From US12716904B2, “Compositions and methods for the detection of tuberculosis” (Washington University, priority 2021, dated 2026)
